Target: ATP-dependent translocase ABCB1 (Homo sapiens, UniProt P08183)
Experiment: TP_TRANSPORTER: inhibition of Rhodamine 123 efflux (R123: 20 uM, Lamellarin I: 10 uM) in Lo Vo/Dx cells
Type: functional, cell-based

Chain of ATP-dependent translocase ABCB1 (P08183 whole entry): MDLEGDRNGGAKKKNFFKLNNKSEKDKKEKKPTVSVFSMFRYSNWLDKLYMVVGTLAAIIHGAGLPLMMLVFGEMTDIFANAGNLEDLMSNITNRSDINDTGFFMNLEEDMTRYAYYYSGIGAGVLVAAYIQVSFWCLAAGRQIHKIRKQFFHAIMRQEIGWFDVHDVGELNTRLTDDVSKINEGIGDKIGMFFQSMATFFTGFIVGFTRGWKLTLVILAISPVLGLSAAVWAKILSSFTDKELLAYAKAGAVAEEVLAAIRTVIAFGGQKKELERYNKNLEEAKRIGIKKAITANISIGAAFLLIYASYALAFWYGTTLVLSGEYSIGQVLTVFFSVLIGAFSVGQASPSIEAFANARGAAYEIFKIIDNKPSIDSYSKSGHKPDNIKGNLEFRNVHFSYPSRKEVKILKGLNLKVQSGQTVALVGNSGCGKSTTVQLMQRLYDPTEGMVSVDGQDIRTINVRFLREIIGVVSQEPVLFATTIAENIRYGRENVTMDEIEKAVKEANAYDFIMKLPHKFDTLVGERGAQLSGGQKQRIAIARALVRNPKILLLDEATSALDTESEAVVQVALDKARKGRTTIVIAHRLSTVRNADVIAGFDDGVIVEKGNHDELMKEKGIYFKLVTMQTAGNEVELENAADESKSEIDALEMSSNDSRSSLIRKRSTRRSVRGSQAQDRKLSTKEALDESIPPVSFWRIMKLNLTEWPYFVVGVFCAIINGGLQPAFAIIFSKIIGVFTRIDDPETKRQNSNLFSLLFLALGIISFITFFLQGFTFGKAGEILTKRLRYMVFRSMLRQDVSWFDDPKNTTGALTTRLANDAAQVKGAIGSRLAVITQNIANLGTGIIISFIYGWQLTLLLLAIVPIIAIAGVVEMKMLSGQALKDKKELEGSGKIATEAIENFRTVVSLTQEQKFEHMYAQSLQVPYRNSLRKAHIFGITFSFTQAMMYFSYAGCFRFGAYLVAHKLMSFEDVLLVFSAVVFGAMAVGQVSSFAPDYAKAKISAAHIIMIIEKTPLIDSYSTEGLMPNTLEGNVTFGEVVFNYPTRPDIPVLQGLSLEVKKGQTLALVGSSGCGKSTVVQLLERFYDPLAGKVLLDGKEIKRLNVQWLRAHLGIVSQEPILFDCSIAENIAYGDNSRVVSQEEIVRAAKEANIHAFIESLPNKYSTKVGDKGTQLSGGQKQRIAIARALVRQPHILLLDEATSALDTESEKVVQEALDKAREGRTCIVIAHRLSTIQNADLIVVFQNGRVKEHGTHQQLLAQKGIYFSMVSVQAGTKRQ

COc1cc2c(cc1O)OCc1c-2c(-c2ccc(OC)c(OC)c2)c2n1CCc1c-2cc(OC)c(OC)c1OC [LAMELLARIN I]
Activity: inhibitor [+]

Source: ChEMBL document CHEMBL2074027, “Polyaromatic alkaloids from marine invertebrates as cytotoxic compounds and inhibitors of multidrug resistance caused by P-glycoprotein” (Br J Cancer, 1996)
